One molecule from publication PMC8524146, “In vitro and in silico characterization of alkaline serine protease from Bacillus subtilis D9 recovered from Saudi Arabia” (Heliyon, 2021) can be followed below.

The target in the assay is T1, AKD9 alkaline serine protease (Bacillus subtilis, UniProt A0A5Q0V2V1).
T1 construct: native enzyme purified from culture supernatant of isolate D9; single band just below 48 kDa; cloned gene 442 aa, 47,789 Da
In words: casein hydrolysis, A280 of TCA-soluble products. Conditions: 100 µM; 0.1 mM TLCK; casein substrate. It counts as biochemical. The source says:
casein hydrolysis, A280 of TCA-soluble products on AKD9 alkaline serine protease

The structures appear in SMILES notation.

T1 sequence (A0A5Q0V2V1 1-442): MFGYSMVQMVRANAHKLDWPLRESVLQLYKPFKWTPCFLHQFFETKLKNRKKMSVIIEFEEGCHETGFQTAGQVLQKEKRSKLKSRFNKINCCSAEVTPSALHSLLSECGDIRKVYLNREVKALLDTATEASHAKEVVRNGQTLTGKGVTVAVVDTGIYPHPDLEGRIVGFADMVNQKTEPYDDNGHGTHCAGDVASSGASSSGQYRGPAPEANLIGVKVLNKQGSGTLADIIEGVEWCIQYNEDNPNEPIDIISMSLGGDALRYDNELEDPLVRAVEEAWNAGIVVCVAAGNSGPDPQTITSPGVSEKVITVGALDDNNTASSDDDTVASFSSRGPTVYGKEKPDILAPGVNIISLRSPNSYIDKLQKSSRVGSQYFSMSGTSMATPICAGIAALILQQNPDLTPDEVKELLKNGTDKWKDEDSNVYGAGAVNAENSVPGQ

For `Cc1ccc(S(=O)(=O)N[C@@H](CCCCN)C(=O)CCl)cc1` [TLCK], the “Residual activity, U/ml” value was determined as 31.5 ± 0.4 U/ml.
